In publication PMC5593926, “Induction of high titred, non-neutralising antibodies by self-adjuvanting peptide epitopes derived from the respiratory syncytial virus fusion protein” (Scientific Reports, 2017):
“Also recorded” adds a separate entry of the source. Bridge positions count the residues as written; N and C are the ends. Square brackets hold non-standard residues; d marks the D form. I, II: the chains in the order shown. ξ: configuration not given here. ξGly(tetradecyl) = CCCCCCCCCCCCCCC(N)C(=O)O

Tests used:
[1] = test system: relevant antigen (peptide and LCP constructs); assay: IgG antibody titres in sera of immunised mice against the relevant antigen (ELISA); type: in vivo, C57BL/6 mice; settings: 30 µg s.c. on day 0, 21, 28, 35, LCP in PBS with 1% DMSO, peptides mixed with PADRE and CFA, ELISA against matched antigen
Protocol: A total of 70 female C57BL/6 mice (6–8 weeks old) were purchased from the University of Queensland Biological Resources (UQBR), and housed in the AIBN animal house facility. All experimental procedures performed in this study were carried out in accordance with National Health & Medical Research Council guidelines and approved by The University of Queensland Animal Ethics Committee. Mice (n=5 per group) were injected subcutaneously at the tail base on day 0, 21, 28, 35 (Supplementary, Fig S15) with 30 µg of each construct in phosphate-buffered saline (PBS). 1% DMSO was included for LCP constructs to aid solubility. The negative control group were administered with 50 μl of PBS. Control groups included peptides (ØP1,2 and IIP3–5) physically mixed with PADRE (1:1) and emulsified in a total volume of 50 μl of complete Freund’s adjuvant (CFA)-PBS (1:1) for the first immunisation and PADRE-peptide mixture in PBS for subsequent immunisations. […]
(§1) An indirect enzyme-linked immunosorbent assay (ELISA) was used to determine the IgG antibody titre. […] Plates were washed as above and secondary antibody binding was detected with the addition of 3,3′,5,5′-Tetramethylbenzidine (TMB) reagent (Thermo Fisher Scientific) at 50 µl/well. Reactions were stopped with 2M H2SO4 (25 µl/well) and absorbance was read at 450 nm on a SpectraMax® 190 (Molecular Devices) microplate reader.

[2] = biological target: Motavizumab (site II specific); assay: ELISA binding of Motavizumab to plate-coated vaccine constructs, one-site model; set-up: species or system human; settings: serial dilution of antibody on ELISA plates coated with construct; saturation one-site specific binding model; read-out: Mota kD
Protocol: (§2) We further tested the ability of site II and site Ø specific antibodies (Motavizumab and D25, respectively) to recognise the peptides and LCP constructs. Dissociation constant (kD) values were derived from a saturation one-site model. D25 clearly recognised the ØLCP2 (66 ± 14 nM) but not ØLCP1 (Fig. 3A). In comparison, in our analysis D25 bound to the native pre-fusion RSV F (FDs-Cav1) with approximately […] stronger avidity (0.92 ± 0.08 nM). Motavizumab bound IILCP4 with the highest avidity (3.8 ± 0.9 nM), while in our analysis Motavizumab bound FDs-Cav1 with approximately 25 fold stronger avidity (0.15 ± 0.01 nM). Motavizumab also recognised IILCP3, 5, 6 and 7 and IIP5 (Fig. 3B). In general binding avidity was stronger for LCP constructs compared to original peptides.
Figure 3 Binding avidity of monoclonal antibodies against vaccine candidates. Antibody binding assessed by serial dilution of antibody on ELISA plates were coated with vaccine constructs and curve fitting by non-linear regression with a one site specific binding model using Graphpad Prism 7 software. (A) D25 antibody recognised ØLCP2 (kD: 66 ± 014 nM) and to a lesser extent ØP2 (kD: 720 ± 036nM). Binding to FDs Cav1 used as positive control (kD: 0.92 ± 00.08 nM). Motavizumab recognised IILCP4 (kD: 3.8 ± 00.9nM), IILCP5 (kD: 16 ± 03nM), IILCP7 (kD: 17 ± 011nM), IIP5 (kD: 23 ± 05nM) and to a lesser extent IILCP6 (kD: 40 ± 04nM). Binding FDs Cav1 was used as a positive control (kD: 0.15 ± 00.01nM).
as §1, with “titre. Peptide antigens were used to coat 96-well plates (TITERTEK®) at a concentration of 5 μg/ml in 20 mM sodium carbonate buffer (pH 9.6), overnight at 4 °C.” for “titre.”

[3] = Particle size analysis by dynamic light scattering; type: physicochemical; settings: 1% DMSO in PBS, 600 µg/ml, 25 °C, 173° backscattering, five replicates
Protocol: Peptides were dissolved in 1% DMSO in phosphate buffered saline (PBS) to a concentration of 600 µg/ml. Particle size was measured using a Zetasizer Nano ZP instrument (Malvern Instrument, UK) via M3-PALS technique with a 173° backscattering angle, at 25 °C. Measurement was performed in five replicates.

[4] = Secondary structure analysis by circular dichroism; type: physicochemical; settings: 600 µg/ml; spectra not detected
Protocol: Conformational studies of constructs were performed using a J-710 spectropolarimeter (Jasco Corporation, Japan). Samples with 600 µg/ml concentration were transferred into a low volume quartz cuvette with 0.1 cm path length. CD spectra were analysed between 250 nm and 190 nm wavelengths. Measurements were performed in triplicate (reported as an average of readings). Spectral results are reported as mean residual ellipticity (θ) versus wavelength (nm).

[5] = test system: D25 antibody (site Ø specific); assay: ELISA binding of D25 antibody to plate-coated vaccine constructs, one-site model; set-up: species or system human; settings: construct coated on plate
Protocol: as §2
Figure 3 Binding avidity of monoclonal antibodies against vaccine candidates. Antibody binding assessed by serial dilution of antibody on ELISA plates were coated with vaccine constructs and curve fitting by non-linear regression with a one site specific binding model using Graphpad Prism 7 software. […]
An indirect enzyme-linked immunosorbent assay (ELISA) was used to determine the IgG antibody titre. […] Plates were washed as above and secondary antibody binding was detected with the addition of 3,3′,5,5′-Tetramethylbenzidine (TMB) reagent (Thermo Fisher Scientific) at 50 µl/well. […]

RSV = RSV plaque reduction neutralisation test (PRNT); type: cell-based, RSV (A2); settings: purified chimeric recombinant anti-F antibody, Vero cells
Protocol: Vero cells were seeded in 96-well tissue culture plates (Nunc®) at 4 × 10^4 cells/well in Opti-MEM supplemented with 3% FBS and 100 U penicillin with 100 μg/ml streptomycin. After overnight growth to allow a confluent monolayer, serial dilutions of virus stock were prepared in Opti-MEM (2% FBS and 100 U penicillin with 100 μg/ml streptomycin) and incubated at 37 °C, 5% CO2 for 1 h. Cell monolayers were inoculated with 50 μL of virus and incubated. After 1 h, the inoculum was replaced with overlay medium (Medium 199 with 3% methylcellulose, 2% FBS, 100 U penicillin with 100 μg/ml streptomycin) and incubated at 37 °C for 72 h. Overlay medium was aspirated and cells were fixed (80% acetone) and immunostained with a recombinant anti-RSV monoclonal antibody followed by IRDye® 800CW goat anti-mouse IgG, LI-COR Biosciences (1:2500). Plaques were read using Odyssey® Imager (LI-COR Biosciences) and titre was recorded as PFU/ml.
PRNT assays were performed as previously described. Briefly, pooled Sera was heat inactivated at 56 °C for 30 min. Dilutions of serum were combined with 50 PFU of RSV in serum free Opti-MEM and incubated at 37 °C for 1 h before applying to confluent monolayers of Vero cells in TC96-well plates. Cells were incubated with the serum-virus mixture at 37 °C for 1 h. Inoculum was aspirated and overlay medium was added and cells were incubated at 37 °C for 72 h. […]

Substance | antigen specific IgG response in sera (in words) [1] | Kd [2] | Diameter DLS [3] | also measured
Ac-LTNSELLSLINDMPITNDQKKLMSNNVQIVRQQS-NH2 [IIP5] | higher specific IgG titres; also recorded: strong response | 0.023 ± 0.005 µM | – | –
I: Ac-LTNSELLSLINDMPITNDQKKLMSNNVQIVRQQS / II: Ac-AKFVAAWTLKAAAKSS[ξGly(tetradecyl)][ξGly(tetradecyl)]-NH2 (amide I:C-II:14) [IILCP5] | higher specific IgG titres; also recorded: robust antibody response | 0.016 ± 0.003 µM | 181±25 nm | –
I: Ac-[ξGly(tetradecyl)][ξGly(tetradecyl)]LTNSELLSLINDMPITNDQKKLMSNNVQIVRQQS / II: Ac-AKFVAAWTLKAAAKSS[ξGly(tetradecyl)][ξGly(tetradecyl)]-NH2 (amide I:C-II:14) [IILCP7] | – | 0.017 ± 0.011 µM | 261±20 nm | aggregation under CD measurement condition [4]: aggregation
KNYIDKQLLPIVNKQS [ØP1] | – | – | – | recognition by D25 (in words) [5]: Neither ØP1 nor ØLCP1 bound to D25
Motavizumab | – | – | – | neutralisation of RSV by purified antibody (in words) (RSV): potent neutralisation
